Laboratory results published in the supplement of paper PMC10307832.

Experiments:
Experiment in all cases: relative viability (nuclei count vs DMSO), 5 days (fraction); higher = more cells survive
[1] = tested on: 201T
Outline: (§1)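 Nuclei were stained with Hoechst during a one-step fixation (final 0.05% Triton X-100, 1% formaldehyde, 1 ug/ml Hoechst) carried out 5 days after dosing, then counted on 4× images. The cells, lung cancer lines in 1536-well plates, had been dosed by pin tool the day after seeding with one drug alone or a fixed anchor-drug dose plus five library-drug doses (not always all listed) in √10 steps. Relative viability is the nuclei count in treated wells divided by that in vehicle wells, and each value is the median of duplicate plates.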

[2] = tested on: BEN
Outline: as §1

[3] = tested on: EMC-BAC-2
Outline: as §1

[4] = tested on: HARA
Outline: as §1

[5] = tested on: LCLC-103H
Outline: as §1

[6] = tested on: LOU-NH91
Outline: as §1

[7] = tested on: NCI-H1395
Outline: as §1

[8] = tested on: NCI-H1666
Outline: as §1

[9] = tested on: NCI-H1993
Outline: as §1

[10] = tested on: NCI-H2009
Outline: as §1

[11] = tested on: NCI-H2023
Outline: as §1

[12] = tested on: NCI-H2087
Outline: as §1

[13] = tested on: NCI-H2126
Outline: as §1

[14] = tested on: NCI-H2347
Outline: as §1

[15] = tested on: NCI-H23
Outline: as §1

[16] = tested on: NCI-H3122
Outline: as §1

[17] = tested on: NCI-H441
Outline: as §1

[18] = tested on: NCI-H596
Outline: as §1

[19] = tested on: NCI-H647
Outline: as §1

[20] = tested on: NCI-H650
Outline: as §1

[21] = tested on: NCI-H727
Outline: as §1

[22] = tested on: NCI-H838
Outline: as §1

`C=C1C(=O)O[C@@H](CCCCCCCC)[C@@H]1C(=O)O` [C-75] + COc1cc2c(Oc3ccc(NC(=O)C4(C(=O)Nc5ccc(F)cc5)CC4)cc3F)ccnc2cc1OCCCN1CCOCC1 [Foretinib] (partner 0.25 µM) was tested, and the relative viability ([1]; first compound 0.08 µM) was 1.08, the relative viability ([1]; first compound 0.253 µM) was 1.24 and the relative viability ([1]; first compound 0.8 µM) was 1.08. It also gave a relative viability ([1]; first compound 2.53 µM) of 0.64, a relative viability ([1]; first compound 8 µM) of 1.03 and a relative viability ([2]; first compound 0.08 µM) of 0.712. For the same compound, the relative viability ([2]; first compound 0.253 µM) was 0.671, the relative viability ([2]; first compound 0.8 µM) was 0.547 and the relative viability ([2]; first compound 8 µM) was 0.478. The relative viability ([3]; first compound 0.08 µM) was 1.02, the relative viability ([3]; first compound 0.253 µM) was 1.1 and the relative viability ([3]; first compound 0.8 µM) was 0.99. The relative viability ([3]; first compound 2.53 µM) was 0.904, the relative viability ([3]; first compound 8 µM) was 1.05 and the relative viability ([4]; first compound 0.08 µM) was 0.822. It also gave a relative viability ([4]; first compound 0.253 µM) of 0.93, a relative viability ([4]; first compound 0.8 µM) of 0.819 and a relative viability ([4]; first compound 2.53 µM) of 0.769. The relative viability ([4]; first compound 8 µM) was 0.979, the relative viability ([5]; first compound 0.08 µM) was 0.814 and the relative viability ([5]; first compound 0.253 µM) was 0.736. For the same compound, the relative viability ([5]; first compound 0.8 µM) was 0.687, the relative viability ([5]; first compound 2.53 µM) was 0.598 and the relative viability ([5]; first compound 8 µM) was 0.743. For the same compound, the relative viability ([6]; first compound 0.08 µM) was 0.938, the relative viability ([6]; first compound 0.253 µM) was 0.873 and the relative viability ([6]; first compound 0.8 µM) was 0.903. For the same compound, the relative viability ([6]; first compound 2.53 µM) was 0.914, the relative viability ([6]; first compound 8 µM) was 0.948 and the relative viability ([7]; first compound 0.08 µM) was 0.894. It also gave a relative viability ([7]; first compound 0.253 µM) of 1.02, a relative viability ([7]; first compound 0.8 µM) of 0.948 and a relative viability ([7]; first compound 2.53 µM) of 1.03. It also gave a relative viability ([7]; first compound 8 µM) of 1.13, a relative viability ([8]; first compound 0.08 µM) of 0.991 and a relative viability ([8]; first compound 0.253 µM) of 1.01. For the same compound, the relative viability ([8]; first compound 0.8 µM) was 0.969, the relative viability ([8]; first compound 2.53 µM) was 0.732 and the relative viability ([8]; first compound 8 µM) was 0.777. The relative viability ([9]; first compound 0.08 µM) was 0.898, the relative viability ([9]; first compound 0.253 µM) was 0.782 and the relative viability ([9]; first compound 0.8 µM) was 0.851. For the same compound, the relative viability ([9]; first compound 2.53 µM) was 0.786, the relative viability ([9]; first compound 8 µM) was 0.88 and the relative viability ([10]; first compound 0.08 µM) was 1.21. For the same compound, the relative viability ([10]; first compound 0.253 µM) was 1.2, the relative viability ([10]; first compound 0.8 µM) was 1.12 and the relative viability ([10]; first compound 2.53 µM) was 1.13. The relative viability ([10]; first compound 8 µM) was 1.04, the relative viability ([11]; first compound 0.08 µM) was 0.798 and the relative viability ([11]; first compound 0.253 µM) was 1.05. For the same compound, the relative viability ([11]; first compound 0.8 µM) was 0.714, the relative viability ([11]; first compound 2.53 µM) was 0.943 and the relative viability ([11]; first compound 8 µM) was 1.07. The relative viability ([12]; first compound 0.08 µM) was 1.15, the relative viability ([12]; first compound 0.253 µM) was 1.07 and the relative viability ([12]; first compound 0.8 µM) was 0.943. For the same compound, the relative viability ([12]; first compound 2.53 µM) was 0.725, the relative viability ([12]; first compound 8 µM) was 0.891 and the relative viability ([13]; first compound 0.08 µM) was 1.1. The relative viability ([13]; first compound 0.253 µM) was 1.27, the relative viability ([13]; first compound 0.8 µM) was 1.2 and the relative viability ([13]; first compound 2.53 µM) was 1.08. For the same compound, the relative viability ([13]; first compound 8 µM) was 1.07, the relative viability ([14]; first compound 0.08 µM) was 0.83 and the relative viability ([14]; first compound 0.253 µM) was 1.21. The relative viability ([14]; first compound 2.53 µM) was 0.876, the relative viability ([14]; first compound 8 µM) was 0.472 and the relative viability ([15]; first compound 0.08 µM) was 0.795. For the same compound, the relative viability ([15]; first compound 0.253 µM) was 1.08, the relative viability ([15]; first compound 0.8 µM) was 1.02 and the relative viability ([15]; first compound 2.53 µM) was 0.808. For the same compound, the relative viability ([15]; first compound 8 µM) was 0.881, the relative viability ([16]; first compound 0.08 µM) was 0.966 and the relative viability ([16]; first compound 0.253 µM) was 0.848. It also gave a relative viability ([16]; first compound 0.8 µM) of 0.936, a relative viability ([16]; first compound 2.53 µM) of 0.952 and a relative viability ([16]; first compound 8 µM) of 0.983. The relative viability ([17]; first compound 0.08 µM) was 1.01, the relative viability ([17]; first compound 0.253 µM) was 0.958 and the relative viability ([17]; first compound 0.8 µM) was 1.03. The relative viability ([17]; first compound 2.53 µM) was 0.789, the relative viability ([17]; first compound 8 µM) was 1.15 and the relative viability ([18]; first compound 0.08 µM) was 0.878. It also gave a relative viability ([18]; first compound 0.253 µM) of 1.01, a relative viability ([18]; first compound 0.8 µM) of 0.871 and a relative viability ([18]; first compound 2.53 µM) of 1. For the same compound, the relative viability ([18]; first compound 8 µM) was 0.869, the relative viability ([19]; first compound 0.08 µM) was 1.23 and the relative viability ([19]; first compound 0.253 µM) was 1.12. The relative viability ([19]; first compound 0.8 µM) was 0.998, the relative viability ([19]; first compound 2.53 µM) was 1.18 and the relative viability ([19]; first compound 8 µM) was 0.97. It also gave a relative viability ([20]; first compound 0.08 µM) of 1, a relative viability ([20]; first compound 0.253 µM) of 0.818 and a relative viability ([20]; first compound 0.8 µM) of 1.04. It also gave a relative viability ([20]; first compound 2.53 µM) of 0.995, a relative viability ([20]; first compound 8 µM) of 0.993 and a relative viability ([21]; first compound 0.08 µM) of 0.796. It also gave a relative viability ([21]; first compound 0.253 µM) of 1.33, a relative viability ([21]; first compound 0.8 µM) of 0.695 and a relative viability ([21]; first compound 8 µM) of 0.917. It also gave a relative viability ([22]; first compound 0.08 µM) of 1.06, a relative viability ([22]; first compound 0.8 µM) of 0.948 and a relative viability ([22]; first compound 2.53 µM) of 0.861. For the same compound, the relative viability ([22]; first compound 8 µM) was 0.964.
